Among the test systems are MOLT-4 leukemia; U251 CNS; SK-MEL-2 melanoma; HL-60(TB) leukemia; NCI/ADR-RES ovarian; IGROV1 ovarian; HT29 colon; NCI-H23 lung; CAKI-1 renal; UACC-62 melanoma; K-562 leukemia; SF-268 CNS; SF-539 CNS; SN12C renal; MDA-MB-231 breast; DU-145 prostate; MDA-MB-435; SR leukemia; TK-10 renal; M14 melanoma.
What all share (experiment): NCI anticancer screen, dose series, 48 h

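1) Cells in 96-well plates. 2) Compound, 48 h, 5 concentrations. 3) Linear interpolation between surrounding doses. 4) Unreached endpoint = highest concentration. At the TGI there is no net growth.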

Turning to `CCC1=CC2CN3CCc4c([nH]c5ccccc45)C(C(=O)OC)(C2)C13` (stereo not drawn), the TGI with MOLT-4 leukemia came out at 181 µM; in the test with U251 CNS, 117 µM; with SK-MEL-2 melanoma, 114 µM; with HL-60(TB) leukemia, 125 µM; with NCI/ADR-RES ovarian it was 110 µM; in the test on IGROV1 ovarian, 105 µM. Further, the TGI with HT29 colon is 60.4 µM; in the test on NCI-H23 lung it was 100 µM; in the test with CAKI-1 renal, 46.5 µM; with UACC-62 melanoma, 64 µM; in the test with K-562 leukemia, 202 µM; in the test on SF-268 CNS, 101 µM. Besides, the TGI was determined as 92.8 µM with SF-539 CNS and 89.3 µM with SN12C renal.

Regarding `CCOC(=O)c1csc(NC(=O)CCN2CCCCC2)n1`, the TGI with MDA-MB-231 breast, in the test on MOLT-4 leukemia, in the test on DU-145 prostate, in the test with U251 CNS, in the test with SK-MEL-2 melanoma and in the test with HL-60(TB) leukemia was more than 100 µM in each case. The TGI with MDA-MB-435, in the test with NCI/ADR-RES ovarian, with SR leukemia, with TK-10 renal, in the test with IGROV1 ovarian and with HT29 colon was more than 100 µM each time. For the same molecule, the TGI in the test with NCI-H23 lung, in the test with CAKI-1 renal, in the test with UACC-62 melanoma, in the test on K-562 leukemia, with SF-539 CNS and in the test on M14 melanoma was more than 100 µM throughout.

On to `CN1C2CC(=O)CC1[C@H](O)[C@@H]2O`, for which the TGI with MDA-MB-231 breast, in the test on MOLT-4 leukemia, in the test on DU-145 prostate, with U251 CNS, in the test on SK-MEL-2 melanoma and in the test with HL-60(TB) leukemia was more than 100 µM throughout. For the same molecule, the TGI in the test with MDA-MB-435, in the test with NCI/ADR-RES ovarian, in the test on SR leukemia, with TK-10 renal, in the test on HT29 colon and with NCI-H23 lung was more than 100 µM each time. For the same molecule, the TGI with K-562 leukemia, in the test on SF-268 CNS, in the test with M14 melanoma and in the test with SN12C renal was more than 100 µM in each case.

The values above are taken from PubChem BioAssay (NCI).
